Results on three compounds are retold here after US5922554A, “Inhibition of cellular uptake of cholesterol” (The Regents of the University of California, priority 1996, dated 1999).

One data set relates to fibroblast monolayers. Nature of the data set: Influx/uptake of ^3 H-FC (free cholesterol) from labeled LDL (or plasma, HDL) into normal fibroblast monolayers. The data set is classed as cell-based, human. Conditions: for FC Influx: LDL-FC 60.2 μg ml^-1, 60 min, 37° C., 30 min preequilibration with inhibitor at: Na-azide 1 mM, NH4-vanadate 1 mM, NEM 2 mM, KNO3 50 mM, progesterone 30 μM, forskolin 30 μM, IBMX 100 μM, chloroquine 20 μM; for effect on LDL FC uptake: Table 3 conditions; for FC Influx, % (PBS only = 100.0): same concentrations and conditions as Table 3 FC influx, 60 min.

The test system of another data set is fibroblasts. As to conditions: Hokland et al. 1993; cited from earlier work.
Data set [1] deals with human hepatoblastoma (HepG2) cells. Conditions: Lange 1994; cited from earlier work.
The next data set deals with fibroblast ACAT. Conditions: 30 μM; Goldstein et al. 1978; cited from earlier work.
The subject of the next data set is hepatocytes. As to conditions: 30 μM; Lange 1994; cited from earlier work.

As for `C=C[C@@]1(C)CC(=O)[C@]2(O)[C@@]3(C)[C@@H](O)CCC(C)(C)[C@@H]3[C@H](O)[C@H](OC(C)=O)[C@@]2(C)O1` [Forskolin], in the data set with fibroblast monolayers, the “LDL-FC influx (discussion, words)” value is listed as “unaffected”; the “inhibition of LDL-FC pathway (summary, words)” value (“inhibition of LDL-FC pathway” for short) is “not inhibited”; the “FC Influx” value worked out at 1.39 ± 0.01 µg; the “effect on LDL FC uptake” value is recorded as “no effect”. Further, the “FC Influx, % (PBS only = 100.0)” value in the data set on fibroblast monolayers was 105.3%. For the same compound, the “transfer of newly-synthesized cholesterol to plasma membrane” value in the data set on fibroblasts is “stimulated”.
As for `CC(C)Cn1c(=O)n(C)c(=O)c2[nH]cnc21` [IBMX, isobutyl methylxanthine], in the data set with fibroblast monolayers, the “LDL-FC influx (discussion, words)” value is “unaffected”; the “inhibition of LDL-FC pathway” value is given as “not inhibited”; the “FC Influx” value is 1.46 ± 0.04 µg; the “effect on LDL FC uptake” value is given as “no effect”. In addition, the “FC Influx, % (PBS only = 100.0)” value with fibroblast monolayers is reported as 110.8%. The “transfer of newly-synthesized cholesterol to plasma membrane” value with fibroblasts is recorded as “stimulated”.
In the case of `CC(=O)[C@H]1CC[C@H]2[C@@H]3CCC4=CC(=O)CC[C@]4(C)[C@H]3CC[C@]12C` [Progesterone], in the data set with fibroblast monolayers, the “LDL-FC influx (discussion, words)” value is “without effect”; the “inhibition of LDL-FC pathway” value is listed as “not inhibited”; the “FC Influx” value was found to be 1.28 ± 0.06 µg; the “effect on LDL FC uptake” value is listed as “no effect”. Moreover, the “FC Influx, % (PBS only = 100.0)” value in the data set with fibroblast monolayers amounted to 97.3%. Besides, in data set [1], the “transfer of FC from plasma membrane to cell interior” value is “promoted the transfer of FC”. Further, the “inhibition of fibroblast ACAT activity” value in the data set with fibroblast ACAT is listed as “maximally inhibit”. The “inhibition of cholesterol transport in hepatocytes” value in the data set with hepatocytes is on record as “inhibit”.
